Test results taken from ChEMBL document CHEMBL1147633, “Structure-activity relationships of a novel class of endothelin receptor selective antagonists; 6-carboxy-2-isopropylamino-5,7-diarylcyclopenteno[1,2-b]pyridines” (Bioorg Med Chem Lett, 2004).
pIC50: −log10 of the molar value.

What was measured:
[1] = target: Endothelin receptor, ET-A/ET-B (Homo sapiens) (UniProt P24530+P25101); experiment: Selectivity ratio of inhibitory activity towards endothelin receptor A to endothelin receptor B (ETB/ETA); format: protein assay
[2] = target: T1, Endothelin receptor type B (Homo sapiens, UniProt P24530); experiment: Inhibitory activity against [125I]ET1 binding to human endothelin B receptor
T1 sequence (P24530 whole entry): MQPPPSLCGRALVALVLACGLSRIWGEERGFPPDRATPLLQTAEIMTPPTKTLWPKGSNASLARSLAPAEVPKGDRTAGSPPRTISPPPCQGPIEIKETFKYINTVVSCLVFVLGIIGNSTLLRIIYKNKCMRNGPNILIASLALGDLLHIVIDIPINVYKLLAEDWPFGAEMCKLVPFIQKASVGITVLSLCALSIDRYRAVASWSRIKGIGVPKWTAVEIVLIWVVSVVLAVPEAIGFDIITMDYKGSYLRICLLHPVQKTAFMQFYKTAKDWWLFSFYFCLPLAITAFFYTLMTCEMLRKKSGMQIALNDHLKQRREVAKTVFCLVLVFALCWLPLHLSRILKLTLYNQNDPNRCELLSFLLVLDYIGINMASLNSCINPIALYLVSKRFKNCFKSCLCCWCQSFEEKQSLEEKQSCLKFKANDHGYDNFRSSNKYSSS

[3] = target: T2, Endothelin-1 receptor (Homo sapiens, UniProt P25101); experiment: Inhibitory activity against [125I]ET1 binding to human endothelin A receptor
T2 sequence (P25101 whole entry): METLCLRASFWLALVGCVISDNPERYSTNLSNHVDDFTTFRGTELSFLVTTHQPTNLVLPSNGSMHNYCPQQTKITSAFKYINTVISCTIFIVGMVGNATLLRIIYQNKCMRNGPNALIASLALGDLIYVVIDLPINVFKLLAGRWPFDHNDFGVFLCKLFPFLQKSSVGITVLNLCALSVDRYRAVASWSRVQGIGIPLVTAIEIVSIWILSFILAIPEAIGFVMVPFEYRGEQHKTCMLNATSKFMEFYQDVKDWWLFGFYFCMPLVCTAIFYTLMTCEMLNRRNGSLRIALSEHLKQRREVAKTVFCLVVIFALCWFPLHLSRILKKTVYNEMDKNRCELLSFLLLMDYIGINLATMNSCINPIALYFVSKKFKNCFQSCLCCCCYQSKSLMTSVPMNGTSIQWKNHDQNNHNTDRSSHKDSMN

[4] = test system: Rattus norvegicus; experiment: Plasma levels of compound was evaluated in rats after 1 hr of oral administration at 3 mg/kg; format: functional, organism-based; design: dose 3 mg/kg
[5] = test system: Rattus norvegicus; experiment: Plasma levels of compound was evaluated in rats after 4 hr of oral administration at 3 mg/kg; format: functional, organism-based; design: dose 3 mg/kg
[6] = test system: Rattus norvegicus; experiment: Plasma levels of compound was evaluated in rats after 8 hr of oral administration at 3 mg/kg; format: functional, organism-based; design: dose 3 mg/kg
[7] = test system: Mus musculus; experiment: In vivo efficacy of compound was determined in mouse after intravenous administration; format: functional
[8] = Bioavailability in rat (dose 3 mg/kg p.o.); format: ADME, organism-based; settings: in vivo, po
[9] = species: Oryctolagus cuniculus; experiment: Antagonistic activity towards endothelin A receptor was evaluated using the rabbit iliac artery in presence of 3% human serum albumin; format: functional
[10] = test system: Rattus norvegicus; experiment: Plasma levels of compound was evaluated in rats after 8 hr of oral administration at 10 mg/kg; format: functional, organism-based; design: dose 10 mg/kg
[11] = test system: Rattus norvegicus; experiment: Plasma levels of compound was evaluated in rats after 1 hr of oral administration at 10 mg/kg; format: functional, organism-based; design: dose 10 mg/kg
[12] = test system: Rattus norvegicus; experiment: Plasma levels of compound was evaluated in rats after 4 hr of oral administration at 10 mg/kg; format: functional, organism-based; design: dose 10 mg/kg
[13] = Bioavailability in rat (dose 1 mg/kg i.v.); format: ADME, organism-based; settings: in vivo, iv

Structure (SMILES)	Selectivity ratio [1]	pIC50 [2]	pIC50 [3]	other results
COc1ccc([C@@H]2c3nc(NC(C)C)ccc3[C@H](c3ccc4c(c3)OCO4)[C@H]2C(=O)O)c(OC)c1	530	7.60	10.33	–
COc1ccc([C@@H]2c3nc(NC(C)C)ccc3[C@H](c3ccc4c(c3)OCO4)[C@H]2C(=O)O)c(CC(O)CO)c1 (single isomer, unassigned) [listing 1 of 2 here]	–	8.22	10.96	–
CCC(CO)Cc1cc(OC)ccc1[C@@H]1c2nc(NC(C)C)ccc2[C@H](c2ccc3c(c2)OCO3)[C@H]1C(=O)O (stereo in doubt; form 2) [listing 1 of 2 here]	910	–	–	–
COc1ccc([C@@H]2c3nc(NC(C)C)ccc3[C@H](c3ccc4c(c3)OCO4)[C@H]2C(=O)O)c(CC(C)CO)c1 (stereo in doubt; form 1) [listing 1 of 2 here]	1300	–	–	Plasma level [4]: 110 nM; Plasma level [5]: 22 nM; Plasma level [6]: 11 nM
COc1ccc([C@@H]2c3nc(NC(C)C)ccc3[C@H](c3ccc4c(c3)OCO4)[C@H]2C(=O)O)c(CC(O)CO)c1 (stereo in doubt) [listing 1 of 2 here]	120	–	–	–
COc1ccc([C@@H]2c3nc(NC(C)C)ccc3[C@H](c3ccc4c(c3)OCO4)[C@H]2C(=O)O)c(CC(C)C(=O)N(C)C)c1 (stereo in doubt) [listing 1 of 2 here]	–	7.37	10.62	AD50 [7]: 0.017 MPK
COc1ccc([C@@H]2c3nc(NC(C)C)ccc3[C@H](c3ccc4c(c3)OCO4)[C@H]2C(=O)O)c(O)c1	1300	6.54	9.66	–
COCC(C)Cc1cc(OC)ccc1[C@@H]1c2nc(NC(C)C)ccc2[C@H](c2ccc3c(c2)OCO3)[C@H]1C(=O)O (stereo in doubt; form 1)	1900	–	–	Plasma level [4]: 220 nM; Plasma level [5]: 81 nM; Plasma level [6]: 52 nM
CCC(CO)Cc1cc(OC)ccc1[C@@H]1c2nc(NC(C)C)ccc2[C@H](c2ccc3c(c2)OCO3)[C@H]1C(=O)O (stereo in doubt; form 1) [listing 1 of 2 here]	–	7.80	10.35	–
COc1ccc([C@@H]2c3nc(NC(C)C)ccc3[C@H](c3ccc4c(c3)OCO4)[C@H]2C(=O)O)c(CO)c1	1000	7.21	10.21	bioavailability [8]: 57%; PKB [9]: 7.76; Plasma level [4]: 130 nM; Plasma level [5]: 94 nM; Plasma level [6]: 19 nM; AD50 [7]: 0.12 MPK
COc1ccc([C@@H]2c3nc(NC(C)C)ccc3[C@H](c3ccc4c(c3)OCO4)[C@H]2C(=O)O)c(OC(C)CO)c1 (stereo in doubt; form 2) [listing 1 of 2 here]	–	7.11	10.24	PKB [9]: 7.46
COc1ccc([C@@H]2c3nc(NC(C)C)ccc3[C@H](c3ccc4c(c3)OCO4)[C@H]2C(=O)O)c(OCC(C)C)c1	490	6.38	9.07	–
COc1ccc([C@@H]2c3nc(NC(C)C)ccc3[C@H](c3ccc4c(c3)OCO4)[C@H]2C(=O)O)c(OCc2ccccc2)c1	600	6.32	9.10	–
COc1ccc([C@@H]2c3nc(NC(C)C)ccc3[C@H](c3ccc4c(c3)OCO4)[C@H]2C(=O)O)c(CC(C)(C)O)c1	1000	7.85	10.85	Plasma level [10]: 110 nM; Plasma level [11]: 460 nM; Plasma level [12]: 48 nM; AD50 [7]: 0.042 MPK
COc1ccc([C@@H]2c3nc(NC(C)C)ccc3[C@H](c3ccc4c(c3)OCO4)[C@H]2C(=O)O)c(CC(O)CO)c1 (stereo in doubt) [listing 2 of 2 here]	–	8.25	10.32	–
COc1ccc([C@@H]2c3nc(NC(C)C)ccc3[C@H](c3ccc4c(c3)OCO4)[C@H]2C(=O)O)c(OC(C)C)c1	800	7.06	9.96	–
CCC(CO)Cc1cc(OC)ccc1[C@@H]1c2nc(NC(C)C)ccc2[C@H](c2ccc3c(c2)OCO3)[C@H]1C(=O)O (stereo in doubt; form 1) [listing 2 of 2 here]	350	–	–	–
COc1ccc([C@@H]2c3nc(NC(C)C)ccc3[C@H](c3ccc4c(c3)OCO4)[C@H]2C(=O)O)c(CCCO)c1	910	7.70	10.66	–

Structure (SMILES)	Selectivity ratio [1]	pIC50 [2]	pIC50 [3]	other results
CCOc1cc(OC)ccc1[C@@H]1c2nc(NC(C)C)ccc2[C@H](c2ccc3c(c2)OCO3)[C@H]1C(=O)O	61	7.35	9.13	–
CCCOc1cc(OC)ccc1[C@@H]1c2nc(NC(C)C)ccc2[C@H](c2ccc3c(c2)OCO3)[C@H]1C(=O)O	240	7.00	9.39	–
COc1ccc([C@@H]2c3nc(NC(C)C)ccc3[C@H](c3ccc4c(c3)OCO4)[C@H]2C(=O)O)c(CC(C)CO)c1 (stereo in doubt; form 2) [listing 1 of 2 here]	860	–	–	–
COc1ccc([C@@H]2c3nc(NC(C)C)ccc3[C@H](c3ccc4c(c3)OCO4)[C@H]2C(=O)O)c(OC(C)CO)c1 (stereo in doubt; form 2) [listing 2 of 2 here]	–	–	–	Plasma level [10]: 69 nM; Plasma level [11]: 440 nM; Plasma level [12]: 20 nM
COc1ccc([C@@H]2c3nc(NC(C)C)ccc3[C@H](c3ccc4c(c3)OCO4)[C@H]2C(=O)O)c(CC(C)C(=O)N(C)C)c1 (single isomer, unassigned) [listing 1 of 2 here]	680	–	–	–
COc1ccc([C@@H]2c3nc(NC(C)C)ccc3[C@H](c3ccc4c(c3)OCO4)[C@H]2C(=O)O)c(CCC(C)(C)O)c1	350	7.64	10.19	–
COc1ccc([C@@H]2c3nc(NC(C)C)ccc3[C@H](c3ccc4c(c3)OCO4)[C@H]2C(=O)O)c(CN(C)C(C)=O)c1	1600	7.37	10.57	PKB [9]: 8.97; Plasma level [4]: 2 nM; Plasma level [5]: 3 nM; Plasma level [6]: 0.4 nM
COc1ccc([C@@H]2c3nc(NC(C)C)ccc3[C@H](c3ccc4c(c3)OCO4)[C@H]2C(=O)O)c(CC(C)C(=O)N(C)C)c1 (stereo in doubt) [listing 2 of 2 here]	1800	–	–	Plasma level [10]: 10 nM; Plasma level [11]: 65 nM; Plasma level [12]: 7 nM
COc1ccc([C@@H]2c3nc(NC(C)C)ccc3[C@H](c3ccc4c(c3)OCO4)[C@H]2C(=O)O)c(CC(O)CO)c1 (single isomer, unassigned) [listing 2 of 2 here]	550	–	–	–
COc1ccc([C@@H]2c3nc(NC(C)C)ccc3[C@H](c3ccc4c(c3)OCO4)[C@H]2C(=O)O)c(CC(C)CO)c1 (stereo in doubt; form 2) [listing 2 of 2 here]	–	7.29	10.23	–
COCC(C)Cc1cc(OC)ccc1[C@@H]1c2nc(NC(C)C)ccc2[C@H](c2ccc3c(c2)OCO3)[C@H]1C(=O)O (stereo in doubt; form 2) [listing 1 of 2 here]	–	7.60	10.96	AD50 [7]: 0.042 MPK
COc1ccc([C@@H]2c3nc(NC(C)C)ccc3[C@H](c3ccc4c(c3)OCO4)[C@H]2C(=O)O)c(CC(C)CO)c1 (stereo in doubt; form 1) [listing 2 of 2 here]	–	7.27	10.39	bioavailability [13]: 7.6%; PKB [9]: 8.33; AD50 [7]: 0.034 MPK
COCC(C)Cc1cc(OC)ccc1[C@@H]1c2nc(NC(C)C)ccc2[C@H](c2ccc3c(c2)OCO3)[C@H]1C(=O)O (stereo in doubt; form 2) [listing 2 of 2 here]	2300	–	–	Plasma level [10]: 120 nM; Plasma level [11]: 810 nM; Plasma level [12]: 130 nM
COc1ccc([C@@H]2c3nc(NC(C)C)ccc3[C@H](c3ccc4c(c3)OCO4)[C@H]2C(=O)O)c(CC(C)C(=O)N(C)C)c1 (single isomer, unassigned) [listing 2 of 2 here]	–	8.02	10.85	–
COc1ccc([C@@H]2c3nc(NC(C)C)ccc3[C@H](c3ccc4c(c3)OCO4)[C@H]2C(=O)O)c(OC(C)CO)c1 (stereo in doubt; form 1) [listing 1 of 2 here]	1700	–	–	Plasma level [10]: 62 nM; Plasma level [11]: 160 nM; Plasma level [12]: 47 nM
COc1ccc([C@@H]2c3nc(NC(C)C)ccc3[C@H](c3ccc4c(c3)OCO4)[C@H]2C(=O)O)c(CCO)c1	610	7.72	10.51	–
CCC(CO)Cc1cc(OC)ccc1[C@@H]1c2nc(NC(C)C)ccc2[C@H](c2ccc3c(c2)OCO3)[C@H]1C(=O)O (stereo in doubt; form 2) [listing 2 of 2 here]	–	7.96	10.96	–
COc1ccc([C@@H]2c3nc(NC(C)C)ccc3[C@H](c3ccc4c(c3)OCO4)[C@H]2C(=O)O)c(OC(C)CO)c1 (stereo in doubt; form 1) [listing 2 of 2 here]	–	7.21	10.44	PKB [9]: 8; AD50 [7]: 0.046 MPK
